Several values for one entry are separate records, joined by “and”; a condition that tells them apart may be missing. Identical values can stand only once.
Test system: 361931-004-R-J1-PDC multicell spheroid viability
Test: Anticancer human tumor 361931-004-R-J1-PDC patient-derived colon adenocarcinoma cell line growth inhibition [PI3K]
Details: for viability, T/C: stronger effect = lower value
Source text: Combinatorial screen of targeted agents with the PI3K inhibitors inavolisib, alpelisib, duvelisib, and copanlisib in multi-cell type tumor spheroids
A high-throughput screen of multi-cell type tumor spheroids was designed to identify active combinations of targeted small molecules and PI3K pathway inhibitors. Complex spheroids include a stromal component modeled by human endothelial cells (HUVEC) and fibroblasts modeled by human mesenchymal stem cells (MSCs). The concentration ranges selected for each drug and investigational agent were based upon clinically achievable concentrations if the clinical Cmax of the agent was known.
Compounds. The drugs and investigational agents: inavolisib (NSC800729), alpelisib (NSC765974), duvelisib (NSC772469), copanlisib (NSC816437), ipatasertib (NSC767898), afuresertib (NSC778305), talazoparib (NSC767125), sapanisertib (NSC764658), selumetinib (NSC741078), tovorafenib (DAY101, NSC766906), vemurafenib (NSC761431), ravoxertinib (NSC781343), sotorasib (NSC818433), MRTX1133 (NSC 836407), abemaciclib (NSC 768073), palbociclib (NSC758247), venetoclax (NSC 766270), SY5609 (NSC837396), enzalutamide (NSC755605), and darolutamide (NSC825331), were obtained from the National Cancer Institute (NCI) Developmental Therapeutics Program Chemical Repository. The FDA-approved anticancer drug set is available from the NCI Developmental Therapeutics Program. […] The stock solutions were prepared in dimethyl sulfoxide (DMSO, Sigma-Aldrich, St. Louis, MO, cat. D2650) at 800-fold the tested concentration and stored at -70 degrees C prior to their use. All drugs and investigational agents were tested over a range starting from a high concentration at or near the clinical Cmax and decreasing in half-log increments. If the clinical Cmax for an agent had not been determined, the highest concentration tested was 10 microM.
Cell Culture. All cells were maintained in an incubator at 37 degrees C and 5% CO2 with 95% humidity. The PDC lines were cultured according to standard operating procedures established by the NCI PDMR (https://pdmr.cancer.gov/sops/default.htm). All PDCs were thawed and cultured in Matrigel-coated flasks prepared with a working solution of 1X Ham's F-12 nutrient mix, without supplementation (Invitrogen, Waltham, MA, cat. 11765054), 100 U/mL penicillin-streptomycin (Invitrogen, cat. 15140122), and 2.5% Matrigel (Corning Inc., Corning, NY, cat. 354248) for the first three passages. The 354836-022-R-J1-PDC, 475296-252-R-J1-PDC, and 997726-040-R-J2-PDC lines were cultured in 6A media, which includes advanced DMEM/F-12 (Thermo Fisher Scientific, cat. 12634028), 10 mM HEPES (Thermo Fisher Scientific, cat. 15630080), 1X GlutaMAX supplement (Thermo Fisher Scientific, cat. 35050061), 0.1 mg/mL primocin (InvivoGen, San Diego, CA, cat. ant-pm-2), 10% defined fetal bovine serum, heat inactivated (HyClone Laboratories Inc., Logan, UT, cat. SH30070.03HI), 50% L-WRN conditioned media (ATCC, cat. CRL-3276), 1.25 mM N-Acetyl-L-cysteine (Sigma-Aldrich, cat. A9165), 10 mM nicotinamide (Sigma-Aldrich, cat. N0636), 1X B-27 supplement (Thermo Fisher Scientific, cat. 17504044), 1X N-2 supplement (Thermo Fisher Scientific, cat. 17502048), and 10 microM Y-27632 dihydrochloride (Tocris Bioscience, Bristol, United Kingdom, cat. 1254). The 624824-186-R-J2-PDC line was cultured in 6C/Colon 1B media, which includes all 6A media components plus 50 ng/mL human EGF recombinant protein (Thermo Fisher Scientific, cat. PHG0311). […]

[1] = curve of first compound, second compound 0.0316 µM
[2] = curve of first compound, second compound 0.1 µM
[3] = curve of first compound, second compound 0.316 µM
[4] = curve of first compound, second compound 1 µM
[5] = second compound 0.0316 µM, first compound 0.0316 µM
[6] = second compound 0.0316 µM, first compound 0.1 µM
[7] = second compound 0.1 µM, first compound 0.0316 µM
[8] = second compound 0.1 µM, first compound 0.1 µM
[9] = second compound 0.316 µM, first compound 0.0316 µM
[10] = second compound 0.316 µM, first compound 0.1 µM
[11] = second compound 1 µM, first compound 0.0316 µM
[12] = second compound 1 µM, first compound 0.1 µM
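Also: spheroids exposed to agents for seven days before readout.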

CCN1CCN(Cc2ccc(Nc3ncc(F)c(-c4cc(F)c5nc(C)n(C(C)C)c5c4)n3)nc2)CC1
viability, T/C (compound 0.00316 µM): 104% (2×) and 94% and 103%
viability, T/C (compound 0.01 µM): 105% [middle of 4 runs]
viability, T/C (compound 0.1 µM): 101% [middle of 4 runs]
IC50 (curve of compound): > 1 µM

CC1(C)CCC(Nc2ncc(C(F)(F)F)c(-c3c[nH]c4c(P(C)(C)=O)c(C#N)ccc34)n2)CN1 (stereo not drawn) + CC(Nc1ccc2c(c1)OCCn1cc(N3C(=O)OCC3C(F)F)nc1-2)C(N)=O
IC50 (curve of first compound, second compound 0.00316 µM): 4.25 µM
IC50 (curve of first compound, second compound 0.01 µM): 4.37 µM
IC50 [1]: 3.95 µM
IC50 [2]: 3.55 µM
IC50 [3]: 3.63 µM
IC50 [4]: 2.06 µM
viability, T/C (second compound 0.00316 µM, first compound 0.0316 µM): 72.1%
viability, T/C (second compound 0.00316 µM, first compound 0.1 µM): 78.7%
viability, T/C (second compound 0.00316 µM, first compound 0.316 µM): 76.4%
viability, T/C (second compound 0.00316 µM, first compound 1 µM): 72.6%
viability, T/C (second compound 0.00316 µM, first compound 3.16 µM): 66.1%
viability, T/C (second compound 0.00316 µM, first compound 10 µM): 3.82%
viability, T/C (second compound 0.01 µM, first compound 0.0316 µM): 84.2%
viability, T/C (second compound 0.01 µM, first compound 0.1 µM): 79.8%
viability, T/C (second compound 0.01 µM, first compound 0.316 µM): 75%
viability, T/C (second compound 0.01 µM, first compound 1 µM): 77.9%
viability, T/C (second compound 0.01 µM, first compound 3.16 µM): 67.8%
viability, T/C (second compound 0.01 µM, first compound 10 µM): 4.66%
viability, T/C [5]: 78.7%
viability, T/C [6]: 69.8%
viability, T/C (second compound 0.0316 µM, first compound 0.316 µM): 70.8%
viability, T/C (second compound 0.0316 µM, first compound 1 µM): 67.1%
viability, T/C (second compound 0.0316 µM, first compound 3.16 µM): 62.2%
viability, T/C (second compound 0.0316 µM, first compound 10 µM): 3.26%
viability, T/C [7]: 84.2%
viability, T/C [8]: 72.3%
viability, T/C (second compound 0.1 µM, first compound 0.316 µM): 64.9%
viability, T/C (second compound 0.1 µM, first compound 1 µM): 69.5%
viability, T/C (second compound 0.1 µM, first compound 3.16 µM): 57%
viability, T/C (second compound 0.1 µM, first compound 10 µM): 3.49%
viability, T/C [9]: 66.6%
viability, T/C [10]: 64.2%
viability, T/C (second compound 0.316 µM, first compound 0.316 µM): 61.1%
viability, T/C (second compound 0.316 µM, first compound 1 µM): 68.4%
viability, T/C (second compound 0.316 µM, first compound 3.16 µM): 55.5%
viability, T/C (second compound 0.316 µM, first compound 10 µM): 3.54%
viability, T/C [11]: 64.5%
viability, T/C [12]: 52.5%
viability, T/C (second compound 1 µM, first compound 0.316 µM): 56.4%
viability, T/C (second compound 1 µM, first compound 1 µM): 56.7%
viability, T/C (second compound 1 µM, first compound 3.16 µM): 46.2%
viability, T/C (second compound 1 µM, first compound 10 µM): 3.28%

Cn1ncnc1[C@H]1c2n[nH]c(=O)c3cc(F)cc(c23)N[C@@H]1c1ccc(F)cc1 + CC(Nc1ncnc2nc[nH]c12)c1cc2cccc(Cl)c2c(=O)n1-c1ccccc1
IC50 [1]: > 0.1 µM
IC50 [2]: > 0.1 µM
IC50 [3]: > 0.1 µM
IC50 [4]: > 0.1 µM
IC50 (curve of first compound, second compound 3.16 µM): > 0.1 µM
IC50 (curve of first compound, second compound 10 µM): > 0.1 µM
viability, T/C (second compound 0.0316 µM, first compound 0.000316 µM): 97.9%
viability, T/C (second compound 0.0316 µM, first compound 0.001 µM): 106%
viability, T/C (second compound 0.0316 µM, first compound 0.00316 µM): 102%
viability, T/C (second compound 0.0316 µM, first compound 0.01 µM): 99.1%
viability, T/C [5]: 107%
viability, T/C [6]: 106%
viability, T/C (second compound 0.1 µM, first compound 0.000316 µM): 110%
viability, T/C (second compound 0.1 µM, first compound 0.001 µM): 104%
viability, T/C (second compound 0.1 µM, first compound 0.00316 µM): 109%
viability, T/C (second compound 0.1 µM, first compound 0.01 µM): 103%
viability, T/C [7]: 101%
viability, T/C [8]: 108%
viability, T/C (second compound 0.316 µM, first compound 0.000316 µM): 107%
viability, T/C (second compound 0.316 µM, first compound 0.001 µM): 108%
viability, T/C (second compound 0.316 µM, first compound 0.00316 µM): 103%
viability, T/C (second compound 0.316 µM, first compound 0.01 µM): 97%
viability, T/C [9]: 105%
viability, T/C [10]: 100%
viability, T/C (second compound 1 µM, first compound 0.000316 µM): 99.5%
viability, T/C (second compound 1 µM, first compound 0.001 µM): 99%
viability, T/C (second compound 1 µM, first compound 0.00316 µM): 102%
viability, T/C (second compound 1 µM, first compound 0.01 µM): 95.2%
viability, T/C [11]: 97.8%
viability, T/C [12]: 95.2%
viability, T/C (second compound 3.16 µM, first compound 0.000316 µM): 102%
viability, T/C (second compound 3.16 µM, first compound 0.001 µM): 111%
viability, T/C (second compound 3.16 µM, first compound 0.00316 µM): 107%
viability, T/C (second compound 3.16 µM, first compound 0.01 µM): 101%
viability, T/C (second compound 3.16 µM, first compound 0.0316 µM): 102%
viability, T/C (second compound 3.16 µM, first compound 0.1 µM): 102%
viability, T/C (second compound 10 µM, first compound 0.000316 µM): 102%
viability, T/C (second compound 10 µM, first compound 0.001 µM): 113%
viability, T/C (second compound 10 µM, first compound 0.00316 µM): 102%
viability, T/C (second compound 10 µM, first compound 0.01 µM): 100%
viability, T/C (second compound 10 µM, first compound 0.0316 µM): 102%
viability, T/C (second compound 10 µM, first compound 0.1 µM): 98.5%

— PubChem BioAssay AID1963979 (Molecular Pharmacology Branch, DTP, NCI, 2024)
